Measured values from patent US7888005B2, “Inhibitors of macromolecular activity” (priority 2003, dated 2011).

Experiments:
[1] = test system: E. coli cell (19R/PTZ) strain containing a single chromosomal copy of the wildtype rnpB gene; experiment: Top agar plate screen of extract dilutions, strain 19R/PTZ; assay type: cell-based; settings: strain 19R/PTZ (single chromosomal rnpB)
Experimental: (§1) Methods. Different strains of E. coli-DH5alpha (DM46 and PTZ/19R) were streaked onto bacto MacConkey agar base plate containing ampicillin at 50 μg/ml. Then a fresh single colony was grown on 5 ml NZY Ap (50 μg/ml) broth at 37° C. overnight. The next day a frozen cell from the above cells was made. 1 ml of a freshly saturated culture was added to a microcentrifuge tube containing 1 ml DMSO (7%). These cells were stored at −80° C. Cells from frozen stocks were streaked out again and one colony from each plate was transferred to 1 ml NZY(amp, 50 μg/ml) broth. The tubes were shaken at 37° C. overnight.
(§2) Top agar (1% tryptone, 0.8% NaCl, 0.7% agar) was used to distribute cells in a thin layer over the surface of a plate. 100 μl of fresh cell was mixed with 2.5 ml top agar. The mixture was then poured into NZY AP (50 μg/ml). Microtiter dishes containing 96-well, were used to prepare serial dilutions in 10% DMSO (1:5, 1:25, 1:125, 1:625) of extracts. A multi-channel pipeting device was used to add 5 μl extract to the top agar plate. Agar plates containing extract were incubated overnight at 37° C. At the end of incubation, inhibition appeared as clear zone around the place that extract was added. Positive extracts from the initial screens were analyzed further. […]

[2] = test system: strain DM46, which contains the rnpB gene cloned on a high copy plasmid; experiment: Top agar plate screen of extract dilutions, strain DM46; assay type: cell-based, E. coli; settings: strain DM46 (multicopy rnpB)
Experimental: as §1, §2

[3] = test system: E. coli ribonuclease P RNA; settings: literature (Vioque 1989; Mikkelsen et al.); cited from earlier work

SMILES: COc1ccc(C[C@H](N)C(=O)N[C@H]2[C@@H](O)[C@H](n3cnc4c(N(C)C)ncnc43)O[C@@H]2CO)cc1 [puromycin]
- Inhibition of growth, in words [1]: inhibits the growth of both strains
- Inhibition of growth, in words [2]: inhibits the growth of both strains
- Inhibition of ribonuclease P RNA reaction [3]: inhibits the catalytic reaction of ribonuclease P RNA

SMILES: NC[C@@H]1O[C@H](O[C@H]2[C@@H](O)[C@H](O[C@@H]3[C@@H](O)[C@H](N)C[C@H](N)[C@H]3O[C@H]3O[C@H](CN)[C@@H](O)[C@H](O)[C@H]3N)O[C@@H]2CO)[C@H](N)[C@@H](O)[C@@H]1O [Neomycin B]
- Inhibition of ribonuclease P RNA reaction [3]: micromolar concentrations
